“Also recorded” adds a separate entry of the source.
Tests used:
finger scratch bleeding = assay: finger scratched to bleed, substance applied to bleeding site; assay type: in vivo, human; conditions: for black blood coagulation / black color formation: derivatives in powder or gel or liquid form; for stopping of bleeding: powder or gel or liquid form
Source text: Myself, finger little scratched, slightly bleeds.

human blood = assay: test tube black blood coagulation of human blood
Source text: The present invention is directed to a method for stopping bleeding, comprising administering powdered D,L-threo-hex-2-enono-1,4-lactone tablets thereof to the wound site in an amount of 0.1568 grams for every milliliter of blood. This powder has a very potent coagulation action to stop bleeding when spraying topically on the bleeding area for any normal or diseased patients. When the powder comes in contact with the blood, the black tar like material is formed, and later becomes solid. The amount of the powder that is needed to react completely with the blood is proportional to the amount of the blood that comes out of the blood vessels. […] The artery bleeding needs much more this powder of interest. […] This is the same for normal, colon cancer and hemophilia patients; 1 ml of normal blood needs 0.1568 grams of D,L-threo-hex-2-enono-1,4-lactone powder, 1 ml of colon cancer needs 0.1568 grams of D,L-threo-hex-2-enono-1,4-lactone, 1 ml of hemophilia blood needs 0.1568 grams of D,L-threo-hex-2-enono-1,4-lactone. Sufficient powdered D,L-threo-hex-2-enono-1,4-lactone is particularly useful to stop bleeding in the case of diffuse capillary oozing and mistakenly cut off artery or arteries that can not be found during massive bleeding so as to save the patients's lives therefor. When D,L-threo-hex-2-enono-1,4-lactone is absorbed into the system, it is good for health by making the leucocytes stronger and slowing the aging process etc. However, at the end of operation before closure, the excessive black tar gel like material can be wiped away with Ringer's solution. Normal, liver Disease, Colon Cancer and Hemophilia Blood When tested in the tube, 1 milliliter of human blood requires 0.1568 grams of a composition comprising powdered D,L-threo-hex-2-enono-1,4-lactone to form black blood coagulation by shaking the tube with hand or stirrer machine. It takes 6 minutes to cause the black blood coagulation unmobile in the test tube for normal, liver diseases, colon cancer and hemophilia blood respectively.

[1] = tested on: massive bleeding of femoral artery; assay: femoral artery bleeding in rat, powder poured topically; assay type: in vivo
Procedure: Sufficient composition comprising powdered D,L-threo-hex-2-enono-1,4-lactone and excipients stops massive bleeding of femoral artery on contact when femoral artery of a rat is cut off In this case of artery on contact when femoral artery of a rat is cut off. In this case of artery bleeding, it is administered topically by pouring instead of spraying. […] Those white spots indicate the powder that is not yet mixed up with the blood. The gel forms first on the surface of the pond of blood, that stops the fluid moving. If stirring the blood to break through the surface film like structure that keeps the blood fluid from moving when the powder is insufficient, it will bleed again, but much slower than before pouring the powder into the bleeding area; adding sufficient powder into the blood, stirring makes the powder molecules well saturated with the hemoglobin and plasma protein molecules and thus forming the concentrated black gel like structure.

venous bleeding = assay: vein bleeding in rat, one vein cut off; assay type: in vivo
gastric bleeding area = assay: bleeding area in rat after histamine-induced gastric acid secretion; assay type: in vivo; conditions: rat after histamine injection; topical to bleeding area
Source text: Thus this powder can treat the gastric ulcer bleeding when ingested orally.

[2] = tested on: surgical / dental bleeding; assay: clinical evidence: topical powder on surgical and dental bleeding in patients; assay type: in vivo, human; conditions: person
Procedure: Person, scalp tumor excision, massive bleeding when the tumor is excised.
Person, acute renal failure, A-V fistula formation operation, masive bleeding. The operation of stopping bleeding consists of combing the powder with pressing with gauzes. […] At the end of the operation, most of black blood coagulation is wiped out with 4×4 gauze, and rinsed with Ringer's solution. It takes totally 5 minutes to stop the bleeding completely, as the surgeon keeps wiping away the coagulation. The patient's conditions are particularly well, better than without using this powder.
Person, skin contracture on the palm, which needs to be removed, and it requires skin graft. When the skin graft is removed from the hand, massive bleeding occurs. On applying sufficient powder to the bleeding area topically, it appears black coagulation on contact. […] Those that appears more black area indicate the more powder mixed up with the blood. Suture going on.
Person, paraanal excision, bleeding when it is opened up. […] Those that appears white are the powder that are not mixed up with the blood. Suture going on.
Person, paranal abscess Excision, massive bleeding when it is opened. […] The white color is the powder instantly not mixed up with the blood yet. Lastly, insert the long gauze into the anus.
Person, chronic hepatitis, has bleeding tendency, extraction of teeth causes massive bleeding.

capillary bleeding = capillary bleeding in rat, one capillary cut off; assay type: in vivo
bleeding nostril = assay: nostril bleeding in rat; assay type: in vivo

Molecule: O=C1OC(C(O)CO)C(O)=C1OC(=O)c1ccccc1 [D,L-threo-hex-2-enono-1,4-lactone-2-benzoate]
- black blood coagulation / black color formation (finger scratch bleeding): the black blood coagulation was formed
- stopping of bleeding (finger scratch bleeding): bleeding was stopped on contact

Molecule: O=C1OC(C(O)CO)C(O)=C1O [D,L-threo-hex-2-enono-1,4-lactone]
- black blood coagulation / black color formation (finger scratch bleeding): the black color forms on contact
- time after which mixture does not move by shaking or pouring (human blood; 0.1568 grams per 1 ml normal or diseased human blood): 6 min
- time to cause black blood coagulation unmobile in the test tube (human blood; colon cancer blood): 6 min
- time to cause black blood coagulation unmobile in the test tube (human blood; hemophilia blood): 6 min
- time to cause black blood coagulation unmobile in the test tube (human blood; liver diseases blood): 6 min
- time to cause black blood coagulation unmobile in the test tube (human blood; normal blood): 6 min
- amount needed (human blood; per 1 ml of colon cancer blood): 0.1568 grams
- amount needed (human blood; per 1 ml of hemophilia blood): 0.1568 grams
- amount needed (human blood; per 1 ml of normal blood): 0.1568 grams
- amount required to form black blood coagulation (human blood; per 1 ml of normal or diseased human blood, test tube): 0.1568 grams
- bleeding after sticky tar like structure is wiped away ([1]; after 5-6 minutes): no bleeding at all
- formation of black tar like material ([1]; as soon as powder contacts the blood): formed in one second
- time to stop bleeding ([1]; rat femoral artery bleeding, sufficient powder): within one second
- amount of powder usually sufficient to stop bleeding ([1]; rat femoral artery cut off, poured topically, amount varies with rats): 0.1344 grams
- bleeding after black coagulation is wiped away (venous bleeding; about 1½ minutes after wiping away): no more bleeding
- amount of powder needed to stop bleeding (venous bleeding; rat, one vein cut off): about 0.0224 grams
- stopping of bleeding (venous bleeding; rat, one venous bleeding): stop bleeding on contact; also recorded: within one second
- black coagulation formation (gastric bleeding area): the black coagulation formed, but slower than normal
- time to stop the bleeding completely ([2]; A-V fistula plasty, acute renal failure, powder plus gauze pressing, coagulation repeatedly wiped away): 5 min
- stopping of bleeding ([2]; extraction of teeth, chronic hepatitis, bleeding tendency): the bleeding in the socket stops on contact
- stopping of bleeding ([2]; extraction of tooth): the bleeding stops on contact
- persistence of stopped bleeding after wiping out black coagulation ([2]; extraction of tooth, wiped out in 10 seconds): stopped bleeding still persisted
- black blood coagulation formation ([2]; paraanal abscess excision, massive bleeding, sprayed): the black color is formed on contact
- stopping of bleeding ([2]; paraanal abscess excision, sprayed): it stops bleeding by forming black blood coagulation on contact
- stopping of bleeding ([2]; scalp tumor excision, massive bleeding, sprayed): the bleeding atops on contact
- stopping of bleeding ([2]; skin contracture excision with skin graft, massive bleeding): Bleeding stops at the same time as the black coagulation forms
- bleeding after adding the powder (capillary bleeding; after 1 minute from adding the powder): no more bleeding at all
- stopping of bleeding (capillary bleeding; rat, one capillary bleeding): stops the bleeding on contact; also recorded: within one second
- amount of powder that stops bleeding (capillary bleeding; rat, one capillary cut off): about 0.0112 grams
- amount of powder applied that stops bleeding (bleeding nostril; rat nostril cut slightly): 0.0037 grams
- stopping of bleeding (bleeding nostril; rat nostril, 0.0037 grams): the bleeding stops on contact

Molecule: CCCCCCCCCCCCCCCC(=O)OCC(O)C1OC(=O)C(O)=C1O [D,L-threo-hex-2-enono-1,4-lactone-6-palimitate]
- black blood coagulation / black color formation (finger scratch bleeding): the black blood coagulation was formed
- stopping of bleeding (finger scratch bleeding): bleeding was stopped on contact

Molecule: D,L-threo-hex-2-enono-1,4-lactone-2-propane
- black blood coagulation / black color formation (finger scratch bleeding): the black blood coagulation was formed
- stopping of bleeding (finger scratch bleeding): bleeding was stopped on contact

Molecule: O=C1OC(C(O)CO)C(O)=C1OP(=O)(O)O [D,L-threo-hex-enono-1,4-lactone-2-phosphate]
- black blood coagulation / black color formation (finger scratch bleeding): the black blood coagulation was formed
- stopping of bleeding (finger scratch bleeding): bleeding was stopped on contact

Reference: patent US6783774B1 (priority 1990, dated 2004)
